This note sets out measurements from EP0993439B1, “4-BROMO OR 4-IODO PHENYLAMINO BENZHYDROXAMIC ACID DERIVATIVES AND THEIR USE AS MEK INHIBITORS” (priority 1997, dated 1999).

For series [1], the system named is murine colon tumor, C26/clone 10. The experiment in a line: Murine colon tumor C26/clone 10 implanted subcutaneously in mice, compound given IP or PO on Days 1 through 14. Particulars: for Change in Body Weight (grams): Days 1 through 14. It counts as in vivo, Male CD2F1 mice. The method, then: Male CD2F1 mice (NCI: Charles River, Kingston) were implanted subcutaneously with tumor fragments (approximately 30 mg) in the region of the right axilla on Day 0. […] The vehicle for the test compound, and for control animals, was 10% EtOH/10% Cremophor-EL (Sigma)/80% H2O, pH 5.0. Tumor volumes were recorded three times per week by measuring the length and width of the individual tumors and calculating mass in milligrams according to the formula (a × b^2)/2, where a and b are the length and width of the tumor. Percent treated/control (T/C) was calculated based on the ratio of the median tumor volume of the treated tumors compared with the median tumor volume of control animals on specified measurement days.

Series [2] has as its target T1, MEK (Homo sapiens, UniProt Q02750). The experiment in a line: Cascade assay for inhibitors of the MAP kinase pathway (32P incorporation into MBP with GST-MEK and GST-MAPK). It counts as biochemical. Conditions: read-out: % Inhibition In Vitro.
In series [3] the target is T1, MEK. The series is described as above. It counts as biochemical. Particulars: read-out: % Inhibition In Vitro. As for the experimental part:
Incorporation of ^32P into myelin basic protein (MBP) was assayed in the presence of a glutathione S-transferase fusion protein containing p44MAP kinase (GST-MAPK) and a glutathione S-transferase fusion protein containing p45MEK (GST-MEK). The assay solution contained 20 mM HEPES, pH 7.4, 10 mM MgCl2, 1 mM MnCl2, 1 mM EGTA, 50 µM [γ-^32P]ATP, 10 µg GST-MEK, 0.5 µg GST-MAPK and 40 µg MBP in a final volume of 100 µL. […] Compounds were assessed at 10 µM for ability to inhibit incorporation of ^32P.
To ascertain whether compounds were inhibiting GST-MEK or GST MAPK, two additional protocols were employed. In the first protocol, compounds were added to tubes containing GST-MEK, followed by addition of GST-MAPK, MBP and [γ-^32P]ATP. In the second protocol, compounds were added to tubes containing both GST-MEK and GST-MAPK, followed by MBP and [γ-^32P]ATP.
The source holds these as a separate data set.

T1 sequence (Q02750 whole entry): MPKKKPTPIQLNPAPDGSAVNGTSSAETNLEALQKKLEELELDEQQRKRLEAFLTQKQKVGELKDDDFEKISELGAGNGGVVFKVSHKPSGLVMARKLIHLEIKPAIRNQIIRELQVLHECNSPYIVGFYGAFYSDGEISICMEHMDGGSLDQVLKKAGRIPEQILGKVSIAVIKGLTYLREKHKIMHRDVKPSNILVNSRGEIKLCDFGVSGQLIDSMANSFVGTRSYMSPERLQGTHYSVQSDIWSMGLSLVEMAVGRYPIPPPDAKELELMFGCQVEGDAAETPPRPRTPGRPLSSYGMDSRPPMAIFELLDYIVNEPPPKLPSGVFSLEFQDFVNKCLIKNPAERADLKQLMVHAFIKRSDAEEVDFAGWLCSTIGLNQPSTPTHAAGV

`O=C(NOCC1CC1)c1ccc(F)c(F)c1Nc1ccc(I)cc1Cl` [Example 95, 3,4-Difluoro-2-(2-chloro-4-iodo-phenylamino)-N-cyclopropylmethoxy-benzamide]: the “% T/C (Day 15)” value is on record as 41% in series [1] (IP, 48 mg/kg/day); 2% in series [1] (IP, 77 mg/kg/day); 4% in series [1] (IP, 124 mg/kg/day); 0% in series [1] (IP, 200 mg/kg/day). In addition, the “Change in Body Weight (grams)” value in series [1] (IP, 48 mg/kg/day) was “+3 grams”; in series [1] (IP, 77 mg/kg/day), “+2 grams”; in series [1] (IP, 124 mg/kg/day), “+3 grams”; in series [1] (IP, 200 mg/kg/day), “+2 grams”; in series [1] (PO, 71 mg/kg/day), “+2 grams”; in series [1] (PO, 115 mg/kg/day) it was “+2 grams”. Also, the “Change in Body Weight (grams)” value in series [1] (PO, 186 mg/kg/day) is given as “+2 grams”; in series [1] (PO, 300 mg/kg/day), “+2 grams”. Also, the “% T/C (Day 17)” value is on record as 36% in series [1] (PO, 71 mg/kg/day); 21% in series [1] (PO, 115 mg/kg/day); 25% in series [1] (PO, 186 mg/kg/day); 17% in series [1] (PO, 300 mg/kg/day).
Turning to `Cc1ccc(Cl)c(Nc2ccccc2C(=O)N(O)Cc2ccccc2)c1Cl` [the 8th table: R6=CH2-Ph, R7=H], the inhibition at 1 µM on MEK [2] is -4%. Moreover, the inhibition at 10 µM at MEK [3] amounted to 18%.
For `Cc1ccc(Cl)c(Nc2ccccc2C(=O)N(C)O)c1Cl` [the 8th table: R6=CH3, R7=H], in that order: -5% and 19%.
Taken in the same sequence, the figures for `CONC(=O)c1ccccc1Nc1c(Cl)ccc(C)c1Cl` [the 8th table: R6=H, R7=CH3] were -8% and 8%.
For `Cc1ccc(Cl)c(Nc2ccccc2C(=O)NO)c1Cl` [the 8th table: R6=H, R7=H], in that order: 9% and -3%.
For `Cc1ccc(Cl)c(Nc2ccccc2C(=O)N(O)C(C)C)c1Cl` [the 8th table: R6=iPr, R7=H], at MEK [2], the inhibition at 1 µM came out at 17%. On MEK [3], the inhibition at 10 µM was found to be 9%.
Taken in the same sequence, the figures for `Cc1cccc(Nc2ccccc2C(=O)N(C)O)c1C` [the 9th table: R6=CH3, R7=H] were 13% and 19%.
Taken in the same sequence, the figures for `CONC(=O)c1ccccc1Nc1cccc(C)c1C` [the 9th table: R6=H, R7=CH3] were -6% and 12%.
Taken in the same sequence, the figures for `Cc1cccc(Nc2ccccc2C(=O)NO)c1C` [the 9th table: R6=H, R7=H] were 6% and -4%.
As for `Cc1cccc(Nc2ccccc2C(=O)N(O)C(C)C)c1C` [the 9th table: R6=iPr, R7=H], on MEK [2], the inhibition at 1 µM is -11%. At MEK [3], the inhibition at 10 µM came out at 7%.
